# Measured values from patent US20260240851A1, “Treatment of Parkinson's Disease in a Patient Using a Glucocerebrosidase Activator” (BIAL - R&D Investments, S.A., priority 2023, published 2026).
# Where two headings read alike, the source gives them in different places.
# What was measured:
# [1] = BIA 28-6156-110 DDI, rosuvastatin portion; type: in vivo, human
# Method: In Cohort 1, a single oral dose of 10 mg rosuvastatin was administered alone on Day 1. No drug was administered on Day 2. From Day 3 to Day 8, a single daily dose of 60 mg Compound A was administered.
# [2] = BIA 28-6156-107 DDI: effect of single-dose Compound A on single-dose PK of carbidopa-levodopa; details: both, human, in vivo, oral; for Tmax: Median Tmax, carbidopa
# [3] = both, human, in vivo
# clinical [4] = details: both, human, in vivo
# Method: (§1) This was a Phase 1, non-randomized, open-label, 2-cohort, cross-over, DDI study in healthy male and female subjects.
# (§2) In Cohort 1, a single oral dose 100 mg/25 mg levodopa-carbidopa (Sinemet®) IR was administered alone on Day 1.
# clinical [5] = details: both, human, in vivo, geometric mean t1/2
# [6] = both, human, in vivo; remark: listed apart in the source
# Method: as §1, §2
# clinical [7] = details: both, human, in vivo; remark: listed apart in the source
# Method: as §1
# (§3) In Cohort 2, a single oral dose 100 mg/25 mg levodopa-benserazide (Madopar®) IR was administered alone on Day 1.
# [8] = both, human, in vivo; remark: listed apart in the source
# Method: as §1, §3
# [9] = Parkinson's patients with a GBA-1 mutation; Peterschmitt et al., 2021; cited from earlier work
# [10] = BIA 28-6156-105: continuous cardiac monitoring, concentration-QTc analysis; details: 400 mg moxifloxacin, positive control
# [11] = BIA 28-6156-105: safety and tolerability; details: 400 mg moxifloxacin
# [12] = BIA 28-6156-110 DDI, metformin portion; type: in vivo, human
# Method: In Cohort 2, a single oral dose 500 mg metformin was administered alone on Day 1. From Day 2 to Day 7, a single daily dose of 60 mg Compound A was administered.
# [13] = 10 mg rosuvastatin + Compound A (60 mg daily) vs rosuvastatin alone
# [14] = 500 mg metformin + Compound A (60 mg daily) vs metformin alone
smiles,measurement,setting,value
CC(C)c1nc(N(C)S(C)(=O)=O)nc(-c2ccc(F)cc2)c1/C=C/[C@@H](O)C[C@@H](O)CC(=O)O [rosuvastatin],"AUC0-inf ratio of geometric least squares mean, estimate",[1]; [13],3.041
same,"AUC0-t ratio of geometric least squares mean, estimate",[1]; [13],3.437
same,"Cmax ratio of geometric least squares mean, estimate",[1]; [13],3.467
same,increase of rosuvastatin PK,[1]; with Compound A vs alone,about 3 fold
same,"increased maximal exposure to rosuvastatin, Cmax",[1]; with Compound A vs alone,347%
same,"increased systemic exposure to rosuvastatin, AUC0-inf",[1]; with Compound A vs alone,304%
same,"increased systemic exposure to rosuvastatin, AUC0-t",[1]; with Compound A vs alone,344%
C[C@@](Cc1ccc(O)c(O)c1)(NN)C(=O)O [carbidopa],Tmax,[2]; carbidopa-levodopa alone,2.5 h
same,Tmax,[2]; coadministered with Compound A,2 h
same,half-life,"[2]; geometric mean t1/2, carbidopa, both treatment conditions",2 to 2.3 h
same,AUC0-last ratio of geometric least squares means (point estimate),[3],0.909
same,Cmax ratio of geometric least squares means (point estimate),[3],1.031
same,decrease of systemic exposure,[3],approximately 9%
same,increase of maximal exposure,[3],approximately 3%
"N[C@@H](Cc1ccc(O)c(O)c1)C(=O)O [Levodopa, levodopa]",half-life,clinical [4],1.69 h
same,AUC0-inf ratio of geometric least squares means (point estimate),[3],1.035
same,AUC0-last ratio of geometric least squares means (point estimate),[3],1.048
same,Cmax ratio of geometric least squares means (point estimate),[3],1.061
same,Median Tmax,[3],0.5 h
same,half-life,clinical [5],1.7 h
same,AUC(0-t),[6],1534 ng·h/mL
same,Tmax,[6],1.00 h
same,Tmax,clinical [7],0.77 h
same,AUC(0-t),clinical [7]; AUC0-t,1940 ng·h/mL
same,t1/2,[8],2.26 h
CC(C)(NC(=O)O[C@@H]1CN2CCC1CC2)c1csc(-c2ccc(F)cc2)n1 [venglustat],impact on slowing the progression of the condition,[9],no impact on slowing the progression of the condition
"COc1c(N2C[C@@H]3CCCN[C@@H]3C2)c(F)cc2c(=O)c(C(=O)O)cn(C3CC3)c12 [Moxifloxacin, moxifloxacin, reference compound]",effect on ΔΔQTcF (concentration-QTc analysis),[10],above 5 msec
same,Grade 3 (severe) TEAE considered related,[11],hypersensitivity
CN(C)C(=N)N=C(N)N [metformin],"AUC0-inf ratio of geometric least squares mean, estimate",[12]; [14],0.940
same,"AUC0-t ratio of geometric least squares mean, estimate",[12]; [14],0.938
same,"Cmax ratio of geometric least squares mean, estimate",[12]; [14],0.950
same,effect of multiple oral doses of Compound A on metformin PK,[12]; single oral dose of metformin,no effect
